Measured values reported in ChEMBL document CHEMBL3868600, “Antibacterial profiling of abietane-type diterpenoids” (Bioorg Med Chem, 2017).
Values after ≈ are worked out from the molar mass of the structure shown.

How the values were obtained:
[1] = test system: Salmonella typhimurium; experiment: Antibacterial activity against Salmonella typhimurium ATCC 13311 after 24 hrs by broth microdilution method; assay type: functional, Salmonella enterica subsp. enterica serovar Typhimurium; settings: Salmonella enterica, ATCC 13311, 24 h
[2] = test system: Staphylococcus epidermidis; experiment: Antibacterial activity against Staphylococcus epidermidis ATCC 12228 after 24 hrs by broth microdilution method; assay type: functional; settings: ATCC 12228, 24 h
[3] = test system: Cutibacterium acnes; experiment: Antibacterial activity against Propionibacterium acnes ATCC 6919 after 24 hrs by broth microdilution method; assay type: functional; settings: ATCC 6919, 24 h
[4] = test system: Streptococcus mitis; experiment: Antibacterial activity against Streptococcus mitis NCIMB 13770 after 24 hrs by broth microdilution method; assay type: functional; settings: NCIMB 13770, 24 h
[5] = test system: Staphylococcus aureus; experiment: Antibacterial activity against Staphylococcus aureus ATCC 25923 after 24 hrs by broth microdilution method; assay type: functional; settings: ATCC 25923, 24 h
[6] = test system: Staphylococcus aureus; experiment: Growth inhibition of Staphylococcus aureus ATCC 25923 at 50 uM after 24 hrs by broth microdilution method; assay type: functional; settings: ATCC 25923, 24 h, read-out: GI
[7] = test system: Escherichia coli; experiment: Growth inhibition of Escherichia coli ATCC 25922 at 50 uM after 24 hrs by broth microdilution method; assay type: functional; settings: ATCC 25922, 24 h, read-out: GI
[8] = test system: Candida albicans; experiment: Growth inhibition of Candida albicans ATCC 90028 at 50 uM after 48 hrs by broth microdilution method; assay type: functional; settings: ATCC 90028, 48 h, read-out: GI
[9] = Antifungal activity against Rhodotorula mucilaginosa ATCC 66034 after 48 hrs by broth microdilution method; assay type: functional
[10] = Antifungal activity against Cladosporium cladosporioides ATCC 16022 after 48 hrs by broth microdilution method; assay type: functional
[11] = test system: Staphylococcus aureus; experiment: Antibacterial activity against methicillin-resistant Staphylococcus aureus ATCC 4330 after 24 hrs by broth microdilution method; assay type: functional; settings: ATCC 4330, 24 h
[12] = test system: Escherichia coli; experiment: Antibacterial activity against Escherichia coli ATCC 25922 after 24 hrs by broth microdilution method; assay type: functional
[13] = test system: Staphylococcus aureus; experiment: Ratio of MIC90 for Staphylococcus aureus ATCC 25923 to MIC90 for methicillin-resistant Staphylococcus aureus ATCC 4330; assay type: functional
[14] = test system: Candida albicans; experiment: Antifungal activity against Candida albicans ATCC 90028 after 48 hrs by broth microdilution method; assay type: functional; settings: ATCC 90028, 48 h

O=C(N[C@H](CO)[C@H](O)c1ccc([N+](=O)[O-])cc1)C(Cl)Cl [CHLORAMPHENICOL]
MIC90 [1]: 8 µg/mL (≈ 24.8 µM)
MIC90 [2]: 8 µg/mL (≈ 24.8 µM)
MIC90 [3]: 4 µg/mL (≈ 12.4 µM)
MIC90 [4]: 4 µg/mL (≈ 12.4 µM)

O=C(O)c1cn(C2CC2)c2cc(N3CCNCC3)c(F)cc2c1=O [CIPROFLOXACIN]
MIC90 [5]: 1 µg/mL (≈ 3.02 µM)

CC[C@H]1OC(=O)[C@H](C)[C@@H](O[C@H]2C[C@@](C)(OC)[C@@H](O)[C@H](C)O2)[C@H](C)[C@@H](O[C@@H]2O[C@H](C)C[C@H](N(C)C)[C@H]2O)[C@](C)(OC)C[C@@H](C)C(=O)[C@H](C)[C@@H](O)[C@]1(C)O [CLARITHROMYCIN]
MIC90 [3]: 0.5 µg/mL (≈ 0.668 µM)
MIC90 [4]: 0.25 µg/mL (≈ 0.334 µM)

COC(=O)CNC(=O)[C@]1(C)CCC[C@@]2(C)[C@H]1CC=C1C=C(C(C)C)CC[C@@H]12
inhibition of growth at 50 µM [6]: 13%
inhibition of growth at 50 µM [7]: 8%
inhibition of growth at 50 µM [8]: 20%

COC(=O)[C@@H](NC(=O)[C@]1(C)CCC[C@@]2(C)[C@H]1CC=C1C=C(C(C)C)CC[C@@H]12)C(C)C
inhibition of growth at 50 µM [6]: 6%
inhibition of growth at 50 µM [7]: 6%
inhibition of growth at 50 µM [8]: 0%

OC(Cn1cncn1)(Cn1cncn1)c1ccc(F)cc1F
MIC90 [9]: 0.5 µg/mL (≈ 1.63 µM)
MIC90 [10]: 520 µg/mL (≈ 1700 µM)

CC[C@H](NC(=O)[C@]1(C)CCC[C@@]2(C)[C@H]1CC=C1C=C(C(C)C)CC[C@@H]12)C(=O)OC
inhibition of growth at 50 µM [6]: -12%
inhibition of growth at 50 µM [7]: 11%
inhibition of growth at 50 µM [8]: 23%

NYSTATIN
MIC90 [9]: 0.125 µg/mL
MIC90 [10]: 64 µg/mL

COC(=O)[C@H](CO)NC(=O)[C@]1(C)CCC[C@@]2(C)[C@H]1CC=C1C=C(C(C)C)CC[C@@H]12
inhibition of growth at 50 µM [6]: 76%
inhibition of growth at 50 µM [7]: 9%
inhibition of growth at 50 µM [8]: 39%
IC50 [5]: 21 to 30 µg/mL (≈ 52 to 74.3 µM)
MIC90 [5]: 61 µg/mL (≈ 151 µM)
MIC90 [1]: > 125 µg/mL
MIC90 [2]: 16 µg/mL (≈ 39.6 µM)
MIC90 [3]: > 125 µg/mL
MIC90 [4]: > 125 µg/mL
MIC90 [9]: 31 µg/mL (≈ 76.8 µM)
MIC90 [10]: > 125 µg/mL
MIC90 [11]: 62 µg/mL (≈ 154 µM)

CC(C)C1=CC2=CC[C@@H]3[C@](C)(CCC[C@@]3(C)C(=O)O)[C@H]2CC1 [ABIETIC ACID]
inhibition of growth at 50 µM [6]: 44 to 45%
inhibition of growth at 50 µM [7]: 0%
inhibition of growth at 50 µM [8]: -53%
MIC90 [5]: 63 µg/mL (≈ 208 µM)
MIC90 [1]: 31 µg/mL (≈ 102 µM)
MIC90 [2]: 8 µg/mL (≈ 26.4 µM)
MIC90 [3]: 4 µg/mL (≈ 13.2 µM)
MIC90 [4]: 16 µg/mL (≈ 52.9 µM)
MIC90 [9]: 31 µg/mL (≈ 102 µM)
MIC90 [10]: 63 µg/mL (≈ 208 µM)
MIC90 [11]: 31 µg/mL (≈ 102 µM)

COC(=O)[C@H](CC(C)C)NC(=O)[C@]1(C)CCC[C@@]2(C)[C@H]1CC=C1C=C(C(C)C)CC[C@@H]12
inhibition of growth at 50 µM [6]: -9%
inhibition of growth at 50 µM [7]: 6%
inhibition of growth at 50 µM [8]: -8%

CN(C)[C@@H]1C(O)=C(C(N)=O)C(=O)[C@@]2(O)C(O)=C3C(=O)c4c(O)cccc4[C@@](C)(O)[C@H]3C[C@@H]12 [TETRACYCLINE]
MIC90 [1]: 16 µg/mL (≈ 36 µM)
MIC90 [2]: 1 µg/mL (≈ 2.25 µM)
MIC90 [3]: 2 µg/mL (≈ 4.5 µM)
MIC90 [4]: 1 µg/mL (≈ 2.25 µM)

COC(=O)[C@H](CC1CCCCC1)NC(=O)[C@]1(C)CCC[C@@]2(C)[C@H]1CC=C1C=C(C(C)C)CC[C@@H]12
inhibition of growth at 50 µM [6]: -8%
inhibition of growth at 50 µM [7]: 3%
inhibition of growth at 50 µM [8]: -35%

CC1(C)S[C@@H]2[C@H](NC(=O)[C@H](N)c3ccccc3)C(=O)N2[C@H]1C(=O)O [AMPICILLIN]
MIC90 [1]: 0.5 µg/mL (≈ 1.43 µM)
MIC90 [2]: 2 µg/mL (≈ 5.72 µM)
MIC90 [3]: 0.125 µg/mL (≈ 0.358 µM)
MIC90 [4]: 2 µg/mL (≈ 5.72 µM)

COC(=O)[C@H](CO)NC(=O)[C@]1(C)CCC[C@]2(C)c3ccc(C(C)C)cc3CC[C@@H]12
IC50 [5]: 21 to 30 µg/mL (≈ 52.3 to 74.7 µM)
MIC90 [5]: > 125 µg/mL

GENTAMICIN
MIC90 [12]: 2 µg/mL

COC(=O)[C@@H](CO)NC(=O)[C@]1(C)CCC[C@]2(C)c3ccc(C(C)C)cc3CC[C@@H]12
IC50 [5]: 21 to 30 µg/mL (≈ 52.3 to 74.7 µM)
MIC90 [5]: 60 µg/mL (≈ 149 µM)
MIC90 [1]: 31 µg/mL (≈ 77.2 µM)
MIC90 [2]: 8 µg/mL (≈ 19.9 µM)
MIC90 [3]: 16 µg/mL (≈ 39.8 µM)
MIC90 [4]: 8 µg/mL (≈ 19.9 µM)
MIC90 [9]: 31 µg/mL (≈ 77.2 µM)
MIC90 [10]: > 125 µg/mL
MIC90 [11]: 8 µg/mL (≈ 19.9 µM)
Ratio [13]: 7.5

COC(=O)[C@H](Cc1ccccc1)NC(=O)[C@]1(C)CCC[C@@]2(C)[C@H]1CC=C1C=C(C(C)C)CC[C@@H]12
inhibition of growth at 50 µM [6]: -1%
inhibition of growth at 50 µM [7]: 6%
inhibition of growth at 50 µM [8]: -13%

C[C@@H]1[C@H](O)[C@@H](C)/C=C/C=C/C=C/C=C/C=C/C=C/C=C/[C@H](O[C@@H]2O[C@H](C)[C@@H](O)[C@H](N)[C@@H]2O)C[C@@H]2O[C@](O)(C[C@@H](O)C[C@@H](O)[C@H](O)CC[C@@H](O)C[C@@H](O)CC(=O)O[C@H]1C)C[C@H](O)[C@H]2C(=O)O [AMPHOTERICIN B]
MIC90 [14]: 16 µg/mL (≈ 17.3 µM)
